# Assay results from patent US20030153538A1, “Antitumor agent” (The Nisshin OilliO, Ltd., priority 2000, published 2003).
# System: B-16 melanoma cells
# Experiment: Tests for tumor cell-proliferation-inhibitory effect and tumor cell-extinction (cell growth rate from viable cell count)
# Type: cell-based
# Conditions: for tumor cell-killing effect (in words): at not less than 2 times the concentration required for proliferation inhibition; for tumor cell-proliferation-inhibitory effect (in words): summary of Table 1
# Experimental: The tumor cell-proliferation-inhibitory effect and the tumor cell-killing or extinction effect can be determined according to the following method using B-16 melanoma cells.
# More specifically, B-16 melanoma cells are inoculated in each well of a 6-well plate in a desired amount, followed by allowing the plate to stand at 37° C. and 5% carbon dioxide concentration to thus cultivate the cells, adding a sample solution to be tested (maslinic acid, erythrodiol, ursolic acid, uvaol, betulinic acid, betulin and physiologically acceptable salts thereof or derivatives thereof) to each well in an amount sufficient for achieving a desired concentration, on the next day or after 5 days from the initiation of the cultivation, determination of viable cell count on the 6th day after the initiation of the cultivation and calculation of the cell growth rate based on the viable cell count to thus evaluate the tumor cell-proliferation-inhibitory effect and the tumor cell-killing effect.
# Tests for determining the tumor cell-proliferation-inhibitory effect and the tumor cell-killing effect were conducted according to the following method. To a 6-well plate, a culture medium was dispensed in an amount of 2 mL/well, B-16 melanoma cells were then inoculated in a desired quantity and thereafter the melanoma cells were cultivated by allowing the plate or the culture medium to stand at 37° C. and a carbon dioxide concentration of 5%. On the following day, a test sample solution prepared was added to and admixed with the content of each well to a desired concentration and the cultivation of the melanoma cells was continued. The culture medium was then exchanged on the 5th day from the initiation of the cultivation and the test sample solution was again added to each well. On the next day, the culture medium was removed to recover the cultivated melanoma cells, followed by washing the cells with PBS (phosphate buffered saline), determination of the viable cell count, and then calculation of the cell growth rate according to the following equation 1. The tumor cell-proliferation-inhibitory effect and the tumor cell-killing effect of each test sample were evaluated on the basis of the cell growth rate thus determined.
# Cell Growth Rate (%)=(A/B)×100
# As comparative examples, oleanolic acid, β-amyrin, α-amyrin and lupeol were added to the culture medium to thus determine and evaluate the cell growth rate by the same method used above.
# [1] = 5 ppm, viable cell count vs control on 6th day
# [2] = 15 ppm, viable cell count vs control on 6th day
# [3] = 25 ppm, viable cell count vs control on 6th day
# [4] = 50 ppm, viable cell count vs control on 6th day
# [5] = 20 ppm, viable cell count vs control on 6th day
# [6] = 30 ppm, viable cell count vs control on 6th day
# [7] = 40 ppm, viable cell count vs control on 6th day
SMILES,Cell Growth Rate [1] [%],Cell Growth Rate [2] [%],Cell Growth Rate [3] [%],Cell Growth Rate [4] [%],"activity at 15 ppm (Mus musculus, B16, 144 h, 15 ppm, viable cell count vs control on 6th day, read-out: Cell Growth Rate) [%]","activity at 20 ppm (Mus musculus, B16, 144 h, 20 ppm, viable cell count vs control on 6th day, read-out: Cell Growth Rate) [%]","activity at 25 ppm (Mus musculus, B16, 144 h, 25 ppm, viable cell count vs control on 6th day, read-out: Cell Growth Rate) [%]","activity at 30 ppm (Mus musculus, B16, 144 h, 30 ppm, viable cell count vs control on 6th day) [%]","activity at 40 ppm (Mus musculus, B16, 144 h, 40 ppm, viable cell count vs control on 6th day) [%]","activity at 50 ppm (Mus musculus, B16, 144 h, 50 ppm, viable cell count vs control on 6th day) [%]",tumor cell-killing effect (in words),tumor cell-proliferation-inhibitory effect (in words),Cell Growth Rate [5] [%],Cell Growth Rate [6] [%],Cell Growth Rate [7] [%]
"CCOC(=O)[C@]12CC[C@@H](C)[C@H](C)[C@H]1C1=CC[C@@H]3[C@@]4(C)CC[C@H](O)C(C)(C)[C@@H]4CC[C@@]3(C)[C@]1(C)CC2 [Comp. Of Synthetic Ex. 6, ursolic acid ethyl ester]",79,72,58,47,–,–,–,–,–,–,–,–,–,–,–
"CC(=O)OC[C@]12CC[C@@H](C)[C@H](C)[C@H]1C1=CC[C@@H]3[C@@]4(C)CC[C@H](OC(C)=O)C(C)(C)[C@@H]4CC[C@@]3(C)[C@]1(C)CC2 [Comp. Of Synthetic Ex. 7, 3,28-O-di-acetyl-uvaol]",85,71,54,42,–,–,–,–,–,–,–,–,–,–,–
"C=C(C)[C@@H]1CC[C@]2(C(=O)OCC)CC[C@]3(C)[C@H](CC[C@@H]4[C@@]5(C)CC[C@H](O)C(C)(C)[C@@H]5CC[C@]43C)[C@@H]12 [Comp. Of Synthetic Ex. 8, betulinic acid ethyl ester]",96,81,69,53,–,–,–,–,–,–,–,–,–,–,–
"C=C(C)[C@@H]1CC[C@]2(COC(C)=O)CC[C@]3(C)[C@H](CC[C@@H]4[C@@]5(C)CC[C@H](OC(C)=O)C(C)(C)[C@@H]5CC[C@]43C)[C@@H]12 [Comp. Of Synthetic Ex. 9, 3,28-O-di-acetyl-betulin]",100,79,68,60,–,–,–,–,–,–,–,–,–,–,–
"C=C(C)[C@@H]1CC[C@]2(C)CC[C@]3(C)[C@H](CC[C@@H]4[C@@]5(C)CC[C@H](O)C(C)(C)[C@@H]5CC[C@]43C)[C@@H]12 [Lupeol, lupeol, reference compound]",–,–,–,–,100,100,100,100,100,100,not observed,do not possess any tumor cell-proliferation-inhibitory effect at all,–,–,–
"C[C@H]1[C@H](C)CC[C@]2(C)CC[C@]3(C)C(=CC[C@@H]4[C@@]5(C)CC[C@H](O)C(C)(C)[C@@H]5CC[C@]43C)[C@H]12 [α-Amyrin, α-amyrin, reference compound]",–,100,100,100,–,–,–,–,–,–,not observed,do not possess any tumor cell-proliferation-inhibitory effect at all,100,100,100
"CC1(C)CC[C@]2(C)CC[C@]3(C)C(=CC[C@@H]4[C@@]5(C)CC[C@H](O)C(C)(C)[C@@H]5CC[C@]43C)[C@@H]2C1 [β-Amyrin, β-amyrin, reference compound]",–,100,100,100,–,–,–,–,–,–,not observed,do not possess any tumor cell-proliferation-inhibitory effect at all,100,100,100
